Measurements reported in article PMC12655637, “Design, Synthesis, and Mechanistic Study of Novel Ciprofloxacin/Thiazole Chalcone Hybrids as Potential Anticancer Agents” (Pharmaceuticals, 2025).

Assays:
[1] = test system: HL-60(TB); experiment: NCI-60 screening, one-dose (10 µM) and five-dose, SRB; assay type: cell-based, human
[2] = test system: BT-549; experiment: as above; assay type: cell-based
[3] = test system: OVCAR-3; experiment: as above; assay type: cell-based
[4] = test system: NCI/ADR-RES; experiment: as above; assay type: cell-based, human
[5] = test system: SK-MEL-5; experiment: as above; assay type: cell-based, human
[6] = test system: 60 human cancer cell lines; experiment: NCI-60 screening, full panel (mean growth, MID a, ranges over all lines)
[7] = test system: SNB-19; experiment: NCI-60 screening, one-dose (10 µM) and five-dose, SRB; assay type: cell-based
[8] = test system: OVCAR-5; experiment: as above; assay type: cell-based, human; conditions: five-dose, OVCAR-5
[9] = test system: M14; experiment: as above; assay type: cell-based, human
[10] = test system: SK-OV-3; experiment: as above; assay type: cell-based, human
[11] = test system: HCT-15; experiment: as above; assay type: cell-based, human
[12] = test system: A549/ATCC; experiment: as above; assay type: cell-based, human
[13] = test system: PC-3; experiment: as above; assay type: cell-based, human
[14] = test system: IGROV1; experiment: as above; assay type: cell-based, human
[15] = test system: MOLT-4; experiment: as above; assay type: cell-based, human
[16] = Homo sapiens, five-dose, BT-549
[17] = Homo sapiens, five-dose, OVCAR-3
[18] = Homo sapiens, five-dose, read-out: LC50 (the source's name)
[19] = Homo sapiens, five-dose, SK-MEL-5
[20] = Homo sapiens, five-dose, SNB-19
[21] = Homo sapiens, five-dose, SK-OV-3
[22] = Homo sapiens, five-dose, HCT-15
[23] = Homo sapiens, IGROV-1, five-dose, IGROV1
[24] = Homo sapiens, five-dose, MOLT-4

SMILES: Cc1nc(SCC(=O)N2CCN(c3cc4c(cc3F)c(=O)c(C(=O)O)cn4C3CC3)CC2)sc1C(=O)/C=C/c1cccc(F)c1 [Compound 4d, (E)-1-Cyclopropyl-6-fluoro-7-(4-(2-((5-(3-(3-fluorophenyl)acryloyl)-4-methylthiazol-2-yl)thio)acetyl)piperazin-1-yl)-4-oxo-1,4-dihydroquinoline-3-carboxylic Acid]
- IC50 ([1]; Homo sapiens, HL-60, five-dose, HL-60(TB)): 2.9 µM
- IC50 ([1]; Homo sapiens, HL-60, leukemia HL-60): 3.7 µM
- GI50 ([1]; Homo sapiens, five-dose, HL-60(TB)): 1.78 µM
- CC50 ([1]; Homo sapiens, five-dose, HL-60(TB), read-out: LC50 (the source's name)): 11 µM
- TGI ([1]; five-dose, HL-60(TB)): 3.8 µM
- activity at 10 µM ([2]; Homo sapiens, 10 μM, BT-549, Breast Cancer, read-out: Growth percentage): -88.5%
- GI50 [2, 16]: 5.4 µM
- IC50 [2, 16]: 25.7 µM
- CC50 ([2]; Homo sapiens, five-dose, BT-549, read-out: LC50 (the source's name)): > 100 µM
- TGI ([2]; five-dose, BT-549): 100.0 µM
- activity at 10 µM ([3]; Homo sapiens, 10 μM, OVCAR-3, Ovarian Cancer, read-out: Growth percentage): -10.9%
- GI50 [3, 17]: 13.5 µM
- IC50 [3, 17]: > 100 µM
- CC50 ([3]; Homo sapiens, five-dose, OVCAR-3, read-out: LC50 (the source's name)): > 100 µM
- TGI ([3]; five-dose, OVCAR-3): 100.0 µM
- activity at 10 µM ([4]; Homo sapiens, 10 μM, Ovarian Cancer, read-out: Growth percentage): 110%
- GI50 ([4]; Homo sapiens, five-dose): > 100 µM
- IC50 ([4]; Homo sapiens, five-dose): > 100 µM
- CC50 [4, 18]: > 100 µM
- TGI ([4]; five-dose): 100.0 µM
- activity at 10 µM ([5]; Homo sapiens, 10 μM, SK-MEL-5, Melanoma, read-out: Growth percentage): 45.1%
- GI50 [5, 19]: 42.7 µM
- IC50 [5, 19]: > 100 µM
- CC50 ([5]; Homo sapiens, five-dose, SK-MEL-5, read-out: LC50 (the source's name)): > 100 µM
- TGI ([5]; five-dose, SK-MEL-5): 100.0 µM
- CC50 ([6]; Homo sapiens, read-out: LC50): 0.6 to 100 µM
- activity at 10 µM ([6]; Homo sapiens, read-out: Mean growth percentage): 20.2%
- Full-panel MG-MID ([6]; mean sensitivity across all cell lines in the panel): 70.2 µM
- activity at 10 µM ([7]; Homo sapiens, 10 μM, SNB-19, CNS Cancer, read-out: Growth percentage): 12.2%
- GI50 [7, 20]: 6.9 µM
- IC50 [7, 20]: 28.2 µM
- CC50 ([7]; Homo sapiens, five-dose, SNB-19, read-out: LC50 (the source's name)): > 100 µM
- TGI ([7]; five-dose, SNB-19): 100.0 µM
- GI50 ([8]; Homo sapiens): > 100 µM
- IC50 ([8]; Homo sapiens): > 100 µM
- CC50 ([8]; Homo sapiens, read-out: LC50 (the source's name)): > 100 µM
- TGI [8]: 100.0 µM
- activity at 10 µM ([9]; Homo sapiens, 10 μM, M14, Melanoma, read-out: Growth percentage): -15.3%
- GI50 ([9]; Homo sapiens, five-dose, M14): 12 µM
- IC50 ([9]; Homo sapiens, five-dose, M14): > 100 µM
- CC50 ([9]; Homo sapiens, five-dose, M14, read-out: LC50 (the source's name)): > 100 µM
- TGI ([9]; five-dose, M14): 100.0 µM
- activity at 10 µM ([10]; Homo sapiens, 10 μM, SK-OV-3, Ovarian Cancer, read-out: Growth percentage): 5%
- GI50 [10, 21]: > 100 µM
- IC50 [10, 21]: > 100 µM
- CC50 ([10]; Homo sapiens, five-dose, SK-OV-3, read-out: LC50 (the source's name)): > 100 µM
- TGI ([10]; five-dose, SK-OV-3): 100.0 µM
- activity at 10 µM ([11]; Homo sapiens, 10 μM, HCT-15, Colon Cancer, read-out: Growth percentage): -41.7%
- GI50 [11, 22]: 33.9 µM
- IC50 [11, 22]: 53.7 µM
- LC50 (50% lethal concentration) [11, 22]: > 100 µM
- TGI ([11]; five-dose, HCT-15): 100.0 µM
- activity at 10 µM ([12]; Homo sapiens, 10 μM, Non-Small-Cell Lung Cancer, read-out: Growth percentage): 65.8%
- GI50 ([12]; Homo sapiens, five-dose): > 100 µM
- IC50 ([12]; Homo sapiens, five-dose): > 100 µM
- CC50 [12, 18]: > 100 µM
- TGI ([12]; five-dose): 7.94 µM
- activity at 10 µM ([13]; Homo sapiens, 10 μM, PC-3, Prostate Cancer, read-out: Growth percentage): 53.4%
- GI50 ([13]; Homo sapiens, five-dose, PC-3): 51.3 µM
- IC50 ([13]; Homo sapiens, five-dose, PC-3): > 100 µM
- CC50 ([13]; Homo sapiens, five-dose, PC-3, read-out: LC50 (the source's name)): > 100 µM
- TGI ([13]; five-dose, PC-3): 100.0 µM
- Growth percentage ([14]; 10 μM, IGROV1, Ovarian Cancer): 44.6%
- GI50 [14, 23]: > 100 µM
- IC50 [14, 23]: > 100 µM
- CC50 ([14]; Homo sapiens, IGROV-1, five-dose, IGROV1, read-out: LC50 (the source's name)): > 100 µM
- TGI ([14]; five-dose, IGROV1): 100.0 µM
- activity at 10 µM ([15]; Homo sapiens, 10 μM, MOLT-4, Leukemia, read-out: Growth percentage): 0.79%
- GI50 [15, 24]: 3.4 µM
- IC50 [15, 24]: 4.8 µM
- LC50 (concentration killing 50% of cells) [15, 24]: 53.7 µM
- TGI ([15]; five-dose, MOLT-4): 0.34 µM
